Test results taken from EP1408048A1, “Vaccines of enhanced immunogenicity, and methods for preparing such vaccines” (INSTITUT NATIONAL DE LA SANTE ET DE LA RECHERCHE MEDICALE …, priority 2002, dated 2004).

System: TAP
Assay: TAP competitive binding assay with radio-labeled reporter peptide R9L
Settings: result in words; TAP affinity = inverse of the IC50; reporter peptide R9L at 300 nM
Method: TAP affinities were determined in a competitive binding assay. IC50 values for competitor test peptides were normalized with respect to the IC50 of reporter peptide […] (SEQ ID N° 2).
Determination of HLA-A2 and TAP affinities. […] Results are expressed as inverse normalized IC50 (1/IC50 of test peptide/ IC50 of cold reporter peptide).

## RRYNASTEL [R9L]
  TAP affinity: high
